Some test systems named below: HCC-2998 colon; HCT-116 colon; HCT-15 colon; HOP-62 NSCLC; HOP-92 NSCLC; MOLT-4 leukemia; OVCAR-8 ovarian; SF-268 CNS; SK-MEL-5 melanoma; U251 CNS.
Holding throughout (assay): DTP human tumour cell line panel, 48 h

SMILES strings stand for the structures. “And” between values parts separate entries of the source, which are not always exact repeats. Equal values may be shown once.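 Cultured in 96-well plates, cells were exposed to test compound for 48 hours across five concentrations. GI50 = concentration required for 50% inhibition of growth. TGI marks complete inhibition of growth.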 Bounds are passed on as bounds.

Take `COc1ccc(-c2nn(-c3cccc(Cl)c3)cc2-c2c(C#N)c(=O)n3[nH]c(-c4ccc(C)o4)nc3c2C#N)cc1`: the GI50 is 7.43 µM in the assay on HCC-2998 colon; 2.53 µM in the assay on HCT-116 colon; 16.6 µM in the assay on HCT-15 colon; 14.1 µM in the assay on HOP-62 NSCLC; 0.463 µM with HOP-92 NSCLC; 3.23 µM with MOLT-4 leukemia. The GI50 was 5.91 µM in the assay with OVCAR-8 ovarian, 5.23 µM in the assay on SF-268 CNS, 5.64 µM with SK-MEL-5 melanoma and 4.71 µM with U251 CNS. In addition, the TGI in the assay on HCC-2998 colon is 45.7 µM; in the assay with HCT-116 colon, 22.5 µM; in the assay on HCT-15 colon, above 50 µM; with HOP-62 NSCLC, above 50 µM; in the assay on HOP-92 NSCLC it was 3.44 µM; with MOLT-4 leukemia it was 24.3 µM. In addition, the TGI with OVCAR-8 ovarian is above 50 µM; in the assay on SF-268 CNS, above 50 µM; in the assay with SK-MEL-5 melanoma, 12.4 µM; with U251 CNS, above 50 µM.

`COc1cc(C(=O)Nc2ccc(-c3nc4ccccc4[nH]3)cc2)cc(OC)c1OC`: the GI50 in the assay on HCC-2998 colon was 14.6 µM; in the assay with HCT-116 colon, 10.7 µM; in the assay with HCT-15 colon, 6.61 µM; with HOP-62 NSCLC it was 6.44 µM; in the assay with HOP-92 NSCLC, 6.41 µM; in the assay on MOLT-4 leukemia it was 9.82 µM. For the same compound, the GI50 is 7.53 µM in the assay on OVCAR-8 ovarian, 14.2 µM in the assay on SF-268 CNS, 11.5 µM with SK-MEL-5 melanoma and 10.2 µM with U251 CNS. For the same compound, the TGI with HCC-2998 colon stood at 36.6 µM; with HCT-116 colon it was 25.3 µM; in the assay on HCT-15 colon, 24.4 µM; in the assay with HOP-62 NSCLC it was 23.9 µM; with HOP-92 NSCLC, 24.2 µM; in the assay with MOLT-4 leukemia, 45.4 µM. Moreover, the TGI stood at 28.5 µM in the assay with OVCAR-8 ovarian, 37.4 µM in the assay on SF-268 CNS, 25.9 µM in the assay on SK-MEL-5 melanoma and 23.4 µM with U251 CNS.

Regarding `N#CC(C#N)=C/C=C/c1ccccc1[N+](=O)[O-]`, the TGI in the assay on HCC-2998 colon is above 10 µM; with HCT-116 colon, 3.67 µM; with HCT-15 colon, above 10 µM; with HOP-62 NSCLC, above 10 µM; in the assay on HOP-92 NSCLC, above 10 µM; with MOLT-4 leukemia, above 10 µM. The TGI is 3.75 µM with OVCAR-8 ovarian, above 10 µM in the assay with SF-268 CNS, above 10 µM in the assay with SK-MEL-5 melanoma and above 10 µM in the assay on U251 CNS.

Turning to `COC(=O)C1C(=O)NC2(C)CC1c1ccccc1O2` (stereo not given), the TGI was above 100 µM in the assay with HCC-2998 colon; above 100 µM in the assay on HCT-116 colon; above 100 µM in the assay with HCT-15 colon; above 10 µM with HOP-62 NSCLC; above 100 µM in the assay with HOP-92 NSCLC; above 100 µM with MOLT-4 leukemia. Moreover, the TGI in the assay with OVCAR-8 ovarian, with SF-268 CNS, with SK-MEL-5 melanoma and in the assay on U251 CNS was above 100 µM in each case.

As for `CC(C)(C)c1cnc(CSc2cnc(NC(=O)C3CCNCC3)s2)o1`, the GI50 in the assay on HCC-2998 colon was 0.27 µM and 0.243 µM; in the assay on HCT-116 colon, 0.102 µM and 0.0797 µM; with HCT-15 colon, 4.76 µM and > 6.31 µM; with HOP-62 NSCLC it was 0.282 µM and 0.343 µM; with HOP-92 NSCLC, 0.114 µM and 0.17 µM; with MOLT-4 leukemia, 0.351 µM and 0.248 µM. In addition, the GI50 in the assay with OVCAR-8 ovarian was 0.307 µM and 0.365 µM; in the assay on SF-268 CNS, 0.185 µM and 0.281 µM; with SK-MEL-5 melanoma it was 0.238 µM and 0.563 µM; in the assay on U251 CNS it was 0.193 µM and 0.2 µM. Also, the TGI in the assay on HCC-2998 colon is 3.79 µM and 1.67 µM; in the assay on HCT-116 colon, above 100 µM; in the assay on HCT-15 colon, above 100 µM; in the assay with HOP-62 NSCLC, 7.06 µM and > 8.87 µM; with HOP-92 NSCLC it was 0.544 µM and 0.657 µM; with MOLT-4 leukemia it was 17.3 µM and > 2.99 µM. The TGI in the assay on OVCAR-8 ovarian was 19.7 µM and > 10 µM; in the assay with SF-268 CNS it was 2.48 µM and > 3.39 µM; in the assay on SK-MEL-5 melanoma it was 0.644 µM and 2.18 µM; with U251 CNS, 27.6 µM and > 10 µM.

For the compound `Cc1nc(Nc2ccc(Cl)c(Cl)c2)sc1C(/C=C/c1ccc2c(c1)OCO2)=N/Nc1ccc([N+](=O)[O-])cc1[N+](=O)[O-]`, the TGI in the assay with HCC-2998 colon is above 100 µM; in the assay on HCT-116 colon, above 100 µM; in the assay on HCT-15 colon it was above 100 µM; in the assay with HOP-62 NSCLC, above 84 µM; in the assay on HOP-92 NSCLC, above 100 µM; in the assay with MOLT-4 leukemia, above 56.2 µM. Also, the total growth inhibition concentration (TGI) in the assay with OVCAR-8 ovarian, with SF-268 CNS, in the assay on SK-MEL-5 melanoma and in the assay on U251 CNS was above 100 µM throughout.

`CNc1ccc(CSc2ccc(C)cc2)cc1`: the GI50 with HCC-2998 colon was 18.8 µM; in the assay on HCT-116 colon, 32.9 µM; with HCT-15 colon it was 12.6 µM; with HOP-62 NSCLC, above 100 µM; in the assay on HOP-92 NSCLC it was 2.36 µM; in the assay with MOLT-4 leukemia, 2.22 µM. Further, the GI50 with OVCAR-8 ovarian was 40.5 µM; in the assay with SF-268 CNS, 14.7 µM; in the assay with SK-MEL-5 melanoma, 13.8 µM; in the assay with U251 CNS, 9.85 µM. Further, the TGI was 83.2 µM with HCC-2998 colon; above 100 µM in the assay on HCT-116 colon; 35.6 µM in the assay on HCT-15 colon; above 100 µM in the assay on HOP-62 NSCLC; 25.9 µM in the assay with HOP-92 NSCLC; 29.3 µM in the assay with MOLT-4 leukemia. In addition, the TGI in the assay with OVCAR-8 ovarian is above 100 µM; in the assay on SF-268 CNS, above 100 µM; in the assay on SK-MEL-5 melanoma, 32.6 µM; in the assay with U251 CNS, above 100 µM.

For the compound `CC(=O)OCCc1cc2ccccc2oc1=O`, the TGI in the assay on HCC-2998 colon, in the assay on HCT-116 colon, with HCT-15 colon, in the assay with HOP-62 NSCLC, in the assay with HOP-92 NSCLC and with MOLT-4 leukemia was above 100 µM in each case. For the same compound, the TGI with OVCAR-8 ovarian, in the assay with SF-268 CNS, in the assay with SK-MEL-5 melanoma and with U251 CNS was above 100 µM throughout.

Usually GI50 stands for the concentration giving 50% growth inhibition. Broadly, the TGI is the concentration giving total growth inhibition.

Source of the values: PubChem BioAssay (NCI).
